Where “and” joins values, the source holds several entries; their conditions need not be identical. Equal values may be shown once. Read-outs that look alike come from different tables or passages of the source.
Assays:
EZH2 [1] = molecular target: T1, EZH2 (Homo sapiens, UniProt Q15910); experiment: EZH2 enzyme activity in protein extracts of human tumor xenografts of treated mice (EZH2 Assay Kit); type: in vivo; settings: tumors excised 6 h after medication, SAHA 25 mg/kg; for inhibition: read-out: decrease of EZH2 enzyme activity/inhibition rate
T1 construct: the EZH2 enzyme was replaced with tumor protein extracts in each group; from tissue; host or cells: human tumour xenografts excised from treated nude mice

EZH2 [2] = molecular target: T2, EZH2 (Mus musculus, UniProt Q61188); experiment: EZH2 enzyme activity in protein extracts of LLC tumors of treated mice (EZH2 Assay Kit); settings: mouse; LLC tumor grown in vivo; tumors excised 6 h after medication; SAHA 25 mg/kg; read-out: decrease of EZH2 enzyme activity/inhibition rate
T2 construct: the EZH2 enzyme was replaced with tumor protein extracts in each group; from tissue; host or cells: Lewis lung cancer tumours from treated mice
T2 sequence (Q61188 whole entry): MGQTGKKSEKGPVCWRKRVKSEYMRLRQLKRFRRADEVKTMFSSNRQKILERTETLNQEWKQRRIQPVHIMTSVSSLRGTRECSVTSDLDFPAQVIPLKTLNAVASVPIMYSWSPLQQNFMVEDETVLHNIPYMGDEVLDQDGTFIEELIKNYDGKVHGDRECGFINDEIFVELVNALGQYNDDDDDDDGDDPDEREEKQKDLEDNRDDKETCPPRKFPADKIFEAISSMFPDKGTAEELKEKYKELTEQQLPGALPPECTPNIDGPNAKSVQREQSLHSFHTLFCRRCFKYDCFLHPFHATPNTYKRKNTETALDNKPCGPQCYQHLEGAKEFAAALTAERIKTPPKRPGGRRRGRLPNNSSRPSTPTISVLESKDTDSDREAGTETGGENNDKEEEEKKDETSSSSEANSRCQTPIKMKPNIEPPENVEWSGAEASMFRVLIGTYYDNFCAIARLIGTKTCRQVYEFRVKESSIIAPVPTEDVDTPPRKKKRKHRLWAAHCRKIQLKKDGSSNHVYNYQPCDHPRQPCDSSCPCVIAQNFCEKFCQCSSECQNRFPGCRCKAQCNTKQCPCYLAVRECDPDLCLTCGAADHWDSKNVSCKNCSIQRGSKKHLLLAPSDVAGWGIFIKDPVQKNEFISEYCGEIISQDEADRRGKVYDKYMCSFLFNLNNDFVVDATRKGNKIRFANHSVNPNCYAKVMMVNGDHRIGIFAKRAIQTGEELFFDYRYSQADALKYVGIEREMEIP
T2 sequence (Q921E6 whole entry partner): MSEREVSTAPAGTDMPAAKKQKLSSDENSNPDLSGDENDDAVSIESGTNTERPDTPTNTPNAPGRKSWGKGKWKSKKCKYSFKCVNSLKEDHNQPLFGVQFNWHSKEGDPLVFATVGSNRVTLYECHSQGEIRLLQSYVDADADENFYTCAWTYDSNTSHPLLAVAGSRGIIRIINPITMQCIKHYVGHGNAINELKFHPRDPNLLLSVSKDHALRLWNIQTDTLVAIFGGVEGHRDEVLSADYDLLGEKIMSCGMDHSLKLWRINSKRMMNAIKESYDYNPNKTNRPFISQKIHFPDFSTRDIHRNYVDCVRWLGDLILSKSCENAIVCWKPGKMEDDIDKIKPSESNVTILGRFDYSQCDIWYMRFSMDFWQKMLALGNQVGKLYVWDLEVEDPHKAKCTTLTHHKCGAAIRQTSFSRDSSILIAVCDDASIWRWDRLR
T2 sequence (Q80U70 whole entry partner): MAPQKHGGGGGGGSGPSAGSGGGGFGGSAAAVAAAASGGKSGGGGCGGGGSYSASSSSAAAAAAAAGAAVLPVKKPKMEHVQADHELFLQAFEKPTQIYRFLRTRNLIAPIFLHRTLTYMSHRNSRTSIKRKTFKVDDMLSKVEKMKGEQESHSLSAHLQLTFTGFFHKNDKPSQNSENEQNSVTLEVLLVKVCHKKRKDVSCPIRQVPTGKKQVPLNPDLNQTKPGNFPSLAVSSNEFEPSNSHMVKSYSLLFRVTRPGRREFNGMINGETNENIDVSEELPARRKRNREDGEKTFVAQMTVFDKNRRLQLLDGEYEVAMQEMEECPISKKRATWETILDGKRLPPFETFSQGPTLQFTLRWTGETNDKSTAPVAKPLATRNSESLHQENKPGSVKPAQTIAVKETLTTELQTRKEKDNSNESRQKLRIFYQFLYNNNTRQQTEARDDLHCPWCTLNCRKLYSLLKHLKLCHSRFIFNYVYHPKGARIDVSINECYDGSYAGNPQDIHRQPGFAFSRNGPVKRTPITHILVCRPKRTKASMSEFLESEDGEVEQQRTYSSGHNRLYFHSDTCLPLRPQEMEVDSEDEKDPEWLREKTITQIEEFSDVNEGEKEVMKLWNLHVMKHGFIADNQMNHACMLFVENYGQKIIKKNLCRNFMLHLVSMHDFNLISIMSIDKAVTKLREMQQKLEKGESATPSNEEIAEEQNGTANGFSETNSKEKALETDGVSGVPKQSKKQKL

T1 sequence (Q15910 whole entry): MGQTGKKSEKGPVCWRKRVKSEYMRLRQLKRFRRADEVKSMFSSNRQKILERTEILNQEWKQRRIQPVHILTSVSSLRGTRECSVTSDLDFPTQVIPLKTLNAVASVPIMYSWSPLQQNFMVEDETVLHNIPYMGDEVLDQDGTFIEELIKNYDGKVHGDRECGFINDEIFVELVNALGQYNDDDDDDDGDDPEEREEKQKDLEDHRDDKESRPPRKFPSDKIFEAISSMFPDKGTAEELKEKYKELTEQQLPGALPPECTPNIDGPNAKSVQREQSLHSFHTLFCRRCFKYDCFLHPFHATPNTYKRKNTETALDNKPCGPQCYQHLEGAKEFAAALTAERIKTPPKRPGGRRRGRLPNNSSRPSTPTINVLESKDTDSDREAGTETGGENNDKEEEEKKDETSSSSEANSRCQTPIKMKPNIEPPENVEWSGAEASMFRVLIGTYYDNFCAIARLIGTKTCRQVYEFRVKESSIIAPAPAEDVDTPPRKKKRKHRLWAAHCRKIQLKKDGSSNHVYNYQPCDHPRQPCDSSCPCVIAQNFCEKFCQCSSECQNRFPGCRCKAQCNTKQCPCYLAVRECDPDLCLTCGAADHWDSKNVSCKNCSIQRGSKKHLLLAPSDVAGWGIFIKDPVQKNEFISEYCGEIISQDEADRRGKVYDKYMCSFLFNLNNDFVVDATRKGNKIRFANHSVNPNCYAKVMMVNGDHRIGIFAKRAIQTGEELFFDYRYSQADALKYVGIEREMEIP
T1 sequence (O75530 whole entry partner): as the sequence (Q921E6 whole entry partner) above
T1 sequence (Q15022 whole entry partner): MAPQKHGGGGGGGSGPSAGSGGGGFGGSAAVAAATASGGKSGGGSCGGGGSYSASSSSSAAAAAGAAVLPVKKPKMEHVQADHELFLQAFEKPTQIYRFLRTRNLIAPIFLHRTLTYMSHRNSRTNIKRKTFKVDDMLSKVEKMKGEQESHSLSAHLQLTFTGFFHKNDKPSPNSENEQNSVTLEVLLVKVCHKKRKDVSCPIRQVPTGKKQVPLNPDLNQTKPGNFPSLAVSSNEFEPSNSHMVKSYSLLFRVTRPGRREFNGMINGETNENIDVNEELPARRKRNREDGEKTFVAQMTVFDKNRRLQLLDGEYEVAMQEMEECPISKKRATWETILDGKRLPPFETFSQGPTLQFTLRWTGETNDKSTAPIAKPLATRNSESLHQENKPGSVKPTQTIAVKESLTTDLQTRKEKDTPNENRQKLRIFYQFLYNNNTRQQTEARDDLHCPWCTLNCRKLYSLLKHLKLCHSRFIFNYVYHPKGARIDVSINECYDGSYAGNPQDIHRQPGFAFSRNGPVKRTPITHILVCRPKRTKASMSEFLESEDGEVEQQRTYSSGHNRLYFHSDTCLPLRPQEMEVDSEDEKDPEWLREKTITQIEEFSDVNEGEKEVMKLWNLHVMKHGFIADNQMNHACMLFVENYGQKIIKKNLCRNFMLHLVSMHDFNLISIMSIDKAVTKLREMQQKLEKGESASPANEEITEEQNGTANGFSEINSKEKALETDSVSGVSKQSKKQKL

Structure (SMILES): O=C(CCCCCCC(=O)Nc1ccccc1)NO [SAHA, suberoylanilide hydroxamic acid, reference compound]
- inhibition (EZH2 [1]; A549, A549 tumor grown in vivo): 52%
- decrease of EZH2 enzyme activity/inhibition rate (EZH2 [1]; A549 tumor grown in vivo): 53%*(A549)-
- inhibition (EZH2 [1]; MCF7, MCF7 tumor grown in vivo): 52%
- decrease of EZH2 enzyme activity/inhibition rate (EZH2 [1]; MCF7 tumor grown in vivo): 53%*(MCF7)
- decrease of EZH2 enzyme activity/inhibition rate (EZH2 [1]; MDA-MB231 tumor grown in vivo): 55%*(MDA-MB231)
- inhibition (EZH2 [1]; MDA-MB-231, MDA-MB231 tumor grown in vivo): 54%
- decrease of EZH2 enzyme activity/inhibition rate (EZH2 [1]; SMMC7721 tumor grown in vivo): 49%*(SMMC-7721); and 49%*(SMMC7721);
- inhibition (EZH2 [1]; SMMC-7721, SMMC7721 tumor grown in vivo): 48%
- inhibition (EZH2 [2]): 50%
